Tests used:
human kidney microsomes [1] = experiment: P450-mediated N-oxidation in human kidney microsomes; assay type: in vitro ADME; conditions: limit of detection 50 pmol/min/mg protein
mice = conditions: cited from earlier work
[2] = pH 7.0; cited from earlier work
calf thymus DNA = experiment: DNA adduct formation; assay type: biochemical; conditions: 0.5 μM, calf thymus DNA 0.4 mg/mL, pH 7.4, 30 min, 37 °C
UGT1A9 [3] = biological target: T1, UGT1A9 (Homo sapiens, UniProt O60656); conditions: cited from earlier work
T1 sequence (O60656 26-530): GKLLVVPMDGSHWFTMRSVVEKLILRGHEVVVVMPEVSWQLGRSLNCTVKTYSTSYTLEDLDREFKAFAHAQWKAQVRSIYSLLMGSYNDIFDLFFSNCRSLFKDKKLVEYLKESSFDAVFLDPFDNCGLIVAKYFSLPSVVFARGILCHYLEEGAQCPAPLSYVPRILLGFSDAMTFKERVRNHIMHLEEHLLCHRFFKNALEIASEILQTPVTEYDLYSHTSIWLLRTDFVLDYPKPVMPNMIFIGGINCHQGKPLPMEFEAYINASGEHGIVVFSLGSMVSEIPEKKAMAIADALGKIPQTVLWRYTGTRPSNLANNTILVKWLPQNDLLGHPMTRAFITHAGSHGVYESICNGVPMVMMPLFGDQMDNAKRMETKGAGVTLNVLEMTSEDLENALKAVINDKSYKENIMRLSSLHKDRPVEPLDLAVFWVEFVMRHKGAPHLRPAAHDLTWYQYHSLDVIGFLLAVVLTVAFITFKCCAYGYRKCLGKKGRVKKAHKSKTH

[4] = system: human microsomes (liver, kidney, colon, rectum); assay type: in vitro ADME; conditions: 1 μM, pH 7.5
UGT2B10 [5] = conditions: cited from earlier work
UGT1A1 [6] = conditions: cited from earlier work
UGT1A9 [7] = biological target: T1, UGT1A9; experiment: Inhibition of propofol glucuronidation in human liver microsomes; assay type: biochemical; conditions: niflumic acid 0.1-2.5 μM, propofol 100 μM
human kidney microsomes [8] = experiment: Inhibition of HONH-AαC glucuronidation in human kidney microsomes; assay type: biochemical; conditions: niflumic acid 0.1-2.5 μM, HONH-AαC 1 μM
UGT2B10 [9] = conditions: cited from earlier work; remark: listed apart in the source
human liver microsomes = experiment: Inhibition of HONH-AαC glucuronidation in human liver microsomes; assay type: biochemical; conditions: niflumic acid 0.1-2.5 μM, HONH-AαC 1 μM
UGT1A1 [10] = experiment: Inhibition of estradiol-3-O-Gluc formation in human liver microsomes; assay type: biochemical; conditions: niflumic acid 0.1-2.5 μM, estradiol 25 μM
[11] = system: other UGT1A and UGT2B isoforms; conditions: cited from earlier work
rodents = conditions: cited from earlier work

## Nc1ccc2c(n1)[nH]c1ccccc12 [AαC, 2-Amino-9H-pyrido[2,3-b]indole]
Human kidney microsomes [1]
  rate of P450-mediated N-oxidation: very low
mice; colon of mice
  mutations and early biomarkers of neoplasia: induces lacI mutations and aberrant crypt foci
mice; mice
  tumor induction: induces liver and blood vessel tumors

## O=C(O)[C@H]1O[C@@H](ONc2ccc3c(n2)[nH]c2ccccc23)[C@H](O)[C@@H](O)[C@@H]1O [AαC-HN^2-O-Gluc, O-(β-D-glucosidurony1)-2-hydroxyamino-9H-pyrido[2,3-b]indole]
[2]
  half-life: exceeds 6 h

## O=C(O)[C@H]1O[C@@H](N(O)c2ccc3c(n2)[nH]c2ccccc23)[C@H](O)[C@@H](O)[C@@H]1O [AαC-HON^2-Gluc, N^2-(β-D-glucosidurony1)-2-hydroxyamino-9H-pyrido[2,3-b]indole]
Calf thymus DNA
  DNA adduct formation (dG-C8-AαC / dG-C8-PhIP): considerably lower than HONH-AαC

## ONc1ccc2c(n1)[nH]c1ccccc12 [HONH-AαC, 2-hydroxyamino-9H-pyrido[2,3-b]indole]
UGT1A9 [3]
  Km: 6.3 µM
Calf thymus DNA
  DNA adduct formation (dG-C8-AαC / dG-C8-PhIP): comparable levels
[4]
  principal Gluc conjugate formed: AαC-HN^2-O-Gluc
[4]; 20 min
  predominant Gluc conjugate formed: AαC-HON^2-Gluc

## Cn1c(NO)nc2ncc(-c3ccccc3)cc21 [HONH-PhIP, 2-hydroxyamino-1-methyl-6-phenylimidazo[4,5-b]pyridine]
UGT2B10 [5]
  Km: 58 µM
UGT1A9 [3]
  Km: 36 µM
UGT1A1 [6]
  Km: 19 µM
Calf thymus DNA
  DNA adduct formation (dG-C8-AαC / dG-C8-PhIP): comparable levels

## O=C(O)c1cccnc1Nc1cccc(C(F)(F)F)c1 [Niflumic acid, niflumic acid]
UGT1A9 [7]
  inhibition of glucuronidation of propofol (UGT1A9 substrate): effective in inhibiting
Human kidney microsomes [8]
  effect on AαC-HN^2-O-Gluc formation: greatly decreased
  effect on AαC-HON^2-Gluc formation: greatly decreased
UGT2B10 [9]
  effect on UGT2B10 activity: does not alter
Human liver microsomes
  effect on AαC-HN^2-O-Gluc formation: concentration-dependent inhibition
  effect on AαC-HON^2-Gluc formation: unchanged
UGT1A1 [10]
  effect on formation of estradiol-3-O-Gluc (UGT1A1): unaffected
[11]
  effect on activities of other UGT1A and UGT2B isoforms: little effect

## Cn1c(N)nc2ncc(-c3ccccc3)cc21 [PhIP, 2-amino-1-methyl-6-phenylimidazo[4,5-b]pyridine]
rodents
  cancer induction: induces lymphoma, pancreatic, colorectal, and prostate cancers
Human kidney microsomes [1]
  rate of P450-mediated N-oxidation: very low

## Cn1c(NO[C@@H]2O[C@H](C(=O)O)[C@@H](O)[C@H](O)[C@H]2O)nc2ncc(-c3ccccc3)cc21 [PhIP-HN^2-O-Gluc, O-(β-D-glucosidurony1)-2-hydroxyamino-1-methyl-6-phenylimidazo[4,5-b]pyridine]
Calf thymus DNA
  DNA adduct formation (dG-C8-AαC / dG-C8-PhIP): higher amounts of dG-C8-PhIP than HONH-PhIP

## Cn1c(N(O)[C@@H]2O[C@H](C(=O)O)[C@@H](O)[C@H](O)[C@H]2O)nc2ncc(-c3ccccc3)cc21 [PhIP-HON^2-Gluc, N^2-(β-D-glucosidurony1)-2-hydroxyamino-1-methyl-6-phenylimidazo[4,5-b]pyridine]
Calf thymus DNA
  DNA adduct formation (dG-C8-AαC / dG-C8-PhIP): not detected
